Key:
COX-2 = assay: mRNA expression of COX-2 in RAW264.7 cell line induced by LPS (real-time PCR); type: cell-based, mouse; conditions: for COX-2 mRNA expression, Fold (value compared with a negative group) / COX-2 mRNA expression, Inhibition ratio (IR) compared with LPS treatment group: LPS 1 μg/ml, 12 hours
Experimental: (§1) In order to determine the inhibitory effect on the mRNA expression of pro-inflammatory medicated enzyme such as iNOS or COX-2, and pro-inflammatory medicated cytokines such as IL-1beta, IL-6, TNF-alpha in RAW264.7 cell line induced by LPS, following test using by real-time PCR (real-time polymerase chain reaction, quantitative real time polymerase chain reaction, qPCR) was performed according to the method disclosed in the literature (Livak, K. J., Schimittgen T. D., 2001, Analysis of relative gene expression data using real-time quantitiative PCR and the 2 (-Delta Delta C(T) method, Methods 25, p 402-408):
(§2) RAW264.7 cell was inoculated into 6-well-plates in the concentration of 1×10^6 cell/well to incubate for 12 hours. Various concentration of KS-513 compound (2.5, 5, 10 and 20 μM) was pre-treated therewith and 1 μg/mL of LPS (L6529, Sigma) was added thereto to incubate for 12 hours.
(§3) To extract total RNA, RNA was extracted using by Triazol B (invitrogen) and cDNA was synthesized using by Omniscript RT kit (205113, Qiagen, Gmbh, Hilden, Germany) after the quantification. The synthesized cDNA was mixed with its template and the primers shown in Table 3 (SEQ.I.D. 1-14), performed to denaturation at 94° C. for 5 mins using by PCR mix (PCR master Mix, Bioneer, Korea), and reacted as follows: 1 cycle for pre-denaturation; at 95° C. for 30 sec, 60° C. for 45 sec, 72° C. for 45 sec, 30 cycles for denaturation; 10 mins at 72° C., 1cycle for final extension. (FIG. 2)

IL-6 = assay: mRNA expression of IL-6 in RAW264.7 cell line induced by LPS (real-time PCR); type: cell-based, mouse; conditions: for IL-6 mRNA expression, Fold (value compared with a negative group) / IL-6 mRNA expression, Inhibition ratio (IR) compared with LPS treatment group: LPS 1 μg/ml, 12 hours
Experimental: as §1, §2, §3

[1] = various concentration, compared with control group treated with LPS (100%)

SMILES: CO[C@@H]1C[C@H]2[C@H](OC(=O)c3ccc(O)cc3)[C@@H]3O[C@]3(CO)[C@H]2[C@H](O[C@@H]2O[C@H](CO)[C@@H](O)C(O)[C@H]2O)O1 (stereo partly drawn) [KS-513, (1aS, 1bS,2S,4S,5aR,6S,6aS)-1a-(hydroxymethyl)-4-methoxy-2-(((2S,3R,5S,6R)-3,4,5-trihydroxy-6-(hydroxymethyl)tetrahydro-2H-pyran-2-yl)oxy)octahydrooxireno[2′,3′:4,5]cyclopenta[1,2-c]pyran-6-yl 4-hydroxybenzoate]
- COX-2 mRNA expression, Fold (value compared with a negative group) (COX-2; 2.5 μM): 4.72 ± 0.21 Fold
- COX-2 mRNA expression, Inhibition ratio (IR) compared with LPS treatment group (COX-2; 2.5 μM): 39.91%
- COX-2 mRNA expression, Fold (value compared with a negative group) (COX-2; 5 μM): 2.64 ± 0.15 Fold
- COX-2 mRNA expression, Inhibition ratio (IR) compared with LPS treatment group (COX-2; 5 μM): 66.40%
- COX-2 mRNA expression, Fold (value compared with a negative group) (COX-2; 10 μM): 1.43 ± 0.50 Fold
- COX-2 mRNA expression, Inhibition ratio (IR) compared with LPS treatment group (COX-2; 10 μM): 81.81%
- COX-2 mRNA expression, Fold (value compared with a negative group) (COX-2; 20 μM): 0.97 ± 0.38 Fold
- COX-2 mRNA expression, Inhibition ratio (IR) compared with LPS treatment group (COX-2; 20 μM): 87.66%
- expressed level of mRNA of COX-2 (COX-2; [1]): significantly decreased in a dose dependent manner
- IL-6 mRNA expression, Fold (value compared with a negative group) (IL-6; 2.5 μM): 24.73 ± 2.26 Fold
- IL-6 mRNA expression, Inhibition ratio (IR) compared with LPS treatment group (IL-6; 2.5 μM): 20.62%
- IL-6 mRNA expression, Fold (value compared with a negative group) (IL-6; 5 μM): 14.24 ± 1.44 Fold
- IL-6 mRNA expression, Inhibition ratio (IR) compared with LPS treatment group (IL-6; 5 μM): 54.30%
- IL-6 mRNA expression, Fold (value compared with a negative group) (IL-6; 10 μM): 8.57 ± 1.23 Fold
- IL-6 mRNA expression, Inhibition ratio (IR) compared with LPS treatment group (IL-6; 10 μM): 72.50%
- IL-6 mRNA expression, Fold (value compared with a negative group) (IL-6; 20 μM): 2.35 ± 0.81 Fold
- IL-6 mRNA expression, Inhibition ratio (IR) compared with LPS treatment group (IL-6; 20 μM): 92.46%
- expressed level of mRNA of IL-6 (IL-6; [1]): significantly decreased in a dose dependent manner
